Experiment [1] concerns wild type BtuCD with BtuF W66 mutants (W66A, W66R, W66E, W66F). Description: In vitro substrate transport assay with liposome reconstituted wild type BtuCD and BtuF W66 mutants. The class given is biochemical, Escherichia coli. As to conditions: 4 mg/ml proteoliposomes (~0.5 μM total BtuCD), 1 μM BtuF, 2 mM ATP, 15 μM cobinamide or cyanocobalamin. Here is the method:
(§1) BtuCD was expressed, purified and reconstituted as described previously with some modifications regarding buffer composition and reconstitution procedure. In brief, BtuCD with an N-terminal His10-tag on BtuC was purified by IMAC and desalted into a buffer of the following composition: 50 mM Tris 7.5, 500 mm NaCl, 0.5 mM EDTA-NaOH 8 and 0.1% w/v LDAO. Purified protein was used directly for reconstitution into liposomes consisting of E. coli Polar lipids and α-Phosphatidylcholine (3:1 weight ratio, Avanti Polar Lipids 100600 C and 840051 C). Liposomes were destabilized with 0.3% w/v Triton X-100 for 20 min at RT. Protein was added with a ratio of 50:1 LPR and incubated for 90 min at RT. Detergent was removed by BioBeads (40 mg/ml mixture) in 4 steps and proteoliposomes were stored at −80 °C until the day of experiment. The protein concentration within the liposomes was determined by Amido black protein assay using BSA for the calibration curve.
The amount of right-side-in oriented BtuCD in liposomes was determined as described previously for ABC type II importer HmuUV with minor modifications. Briefly, liposome-reconstituted BtuCD was incubated with 1 μM fluorescently labeled BtuF (BtuFfluo) for 30 min at RT followed by a spin to remove excess BtuFfluo. The pellet was washed and resuspended at 1.25 mg/ml liposome concentration. The amount of BtuFfluo associated with the liposomes was determined by measuring the fluorescence signal at an excitation wavelength of 485 nm and an emission wavelength of 516 nm. Unspecific BtuFfluo interaction with liposomes was measured using empty liposomes.
For the substrate transport assays radiolabeled ^14C-cyano-aquo-cobinamide (^14CN-Cbi, labeled in house) or ^57Co-cyanocobalamin (^57Co-Cbl, MP Biomedicals 06B-430000, 10.5 uCi) was used. […] The radioactivity trapped on the filters was measured either by a β counter using LCS in case of ^14CN-Cbi or a γ counter in case of ^57Co-Cbl. Initial transport rates were determined by using linear regression in PrismGraphpad.

In experiment [2] the target is T1, BtuFfluo W66Y (E.c. BtuF) (Escherichia coli, UniProt P37028, Q145C/W66Y).
T1 construct: His6; made in house
T1 sequence (P37028 23-266 W66Y/Q145C): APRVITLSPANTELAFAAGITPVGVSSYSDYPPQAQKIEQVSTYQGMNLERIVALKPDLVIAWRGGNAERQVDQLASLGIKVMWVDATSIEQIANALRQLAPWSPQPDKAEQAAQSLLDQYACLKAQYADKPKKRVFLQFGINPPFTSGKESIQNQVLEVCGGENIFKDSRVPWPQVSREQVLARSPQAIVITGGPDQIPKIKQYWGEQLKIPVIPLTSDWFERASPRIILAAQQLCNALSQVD
In words: Fluorescence quenching substrate binding assay with BtuFfluo, W66Y mutant. As to conditions: for Kd: BtuFfluo 5 nM, substrate 0.02 nM to 33 μM, 30 min at 10 °C, mean and S.E.M., n = 12. The protocol: (§2) For binding assays BtuF was labeled at a cysteine residue in the backbone helix with fluorescein-5-maleimide (Thermo scientific 62245) as described previously. In brief, 50 to 100 μM BtuF Q145C (Invitrogen QuickChange) was labeled with a 10-fold molar excess of fluorescein-5-maleimide (BtuFfluo). The reaction was run over night at 4 °C in the presence of 1 mM TCEP to prevent oxidation and stopped with 5 mM β-mercaptoethanol. Excess label was removed by desalting with PD10 columns and the protein was further purified by size exclusion chromatography. Protein concentration was determined by Bradford assay using BSA for calibration and the labeling efficiency was determined by measuring the absorbance at 494 nm. The labeled protein was flash frozen in liquid nitrogen and stored at −80 °C until the day of use. Final storage buffer was 50 mM HEPES 7, 200 mM NaCl, 0.5 mM EDTA-NaOH 8 and 10% v/v Glycerol.
(§3) The assay is based on monitoring the ligand-induced change in emission of fluorescein attached to BtuF (BtuFfluo). A similar approach has been used to determine the affinity of MBP for maltose in the presence of various sAB[40][41][42]. BtuFfluo at 5 nM was incubated with a range of substrate concentrations from 0.02 nM to 33 μM. After incubation for 30 min at 10 °C the fluorescence intensity was recorded at an excitation wavelength of 485 nm and emission at 528 nm. The maximum signal was recorded in the absence of substrate and decreased with increasing substrate concentration. The difference of the maximum intensity minus the signal at a certain substrate concentration was plotted against the substrate concentration. One site –specific binding in Prism GraphPad was used to fit the data for KD determination (GraphPad Prism version 6.04 for Windows, GraphPad Software, La Jolla California USA, www.graphpad.com”). Binding buffer composition was 50 mM Tris 7.5 and 200 mM NaCl.

Experiment [3] concerns the target T2, BtuFfluo W66A (E.c. BtuF) (Escherichia coli, UniProt P37028, Q145C/W66A).
T2 construct: His6; made in house
In words: Fluorescence quenching substrate binding assay with BtuFfluo, W66A mutant. Conditions: BtuFfluo 5 nM, substrate 0.02 nM to 33 μM, 30 min at 10 °C, mean and S.E.M., n = 12. Here is the method:
as §2, §3

The target of experiment [4] is T3, BtuFfluo W66R (E.c. BtuF) (Escherichia coli, UniProt P37028, Q145C/W66R).
T3 construct: His6; made in house
T3 sequence (P37028 23-266 W66R/Q145C): as the sequence (P37028 23-266 W66Y/Q145C) above, with Y44R counted along it
Description: Fluorescence quenching substrate binding assay with BtuFfluo, W66R mutant. Conditions: for decrease in affinity compared to wt: W66R (arginine) versus wild type BtuF; for Kd: BtuFfluo 5 nM, substrate 0.02 nM to 33 μM, 30 min at 10 °C, mean and S.E.M., n = 9. The protocol: as §2, §3

Experiment [5] has as its target T4, BtuFfluo W66E (E.c. BtuF) (Escherichia coli, UniProt P37028, Q145C/W66E).
T4 construct: His6; made in house
Description: Fluorescence quenching substrate binding assay with BtuFfluo, W66E mutant. The protocol: as §2, §3

The target of experiment [6] is T5, wild type BtuFfluo (E.c. BtuF) (Escherichia coli, UniProt P37028, Q145C).
T5 construct: His6; made in house
T5 sequence (P37028 23-266 Q145C): as the sequence (P37028 23-266 W66Y/Q145C) above, with Y44W counted along it
In words: Fluorescence quenching substrate binding assay with BtuFfluo, wild type. As to conditions: BtuFfluo 5 nM, substrate 0.02 nM to 33 μM, 30 min at 10 °C, mean and S.E.M., n = 12. The protocol:
as §2, §3

The target in experiment [7] is T6, BtuFfluo W66H (E.c. BtuF) (Escherichia coli, UniProt P37028, Q145C/W66H).
T6 construct: His6; made in house
T6 sequence (P37028 23-266 W66H/Q145C): as the sequence (P37028 23-266 W66Y/Q145C) above, with Y44H counted along it
Description: Fluorescence quenching substrate binding assay with BtuFfluo, W66H mutant. As to conditions: for Kd: BtuFfluo 5 nM, substrate 0.02 nM to 33 μM, 30 min at 10 °C, mean and S.E.M., n = 12. The protocol: as §2, §3

The target in experiment [8] is T7, BtuFfluo W66L (E.c. BtuF) (Escherichia coli, UniProt P37028, Q145C/W66L).
T7 construct: His6; made in house
T7 sequence (P37028 23-266 W66L/Q145C): as the sequence (P37028 23-266 W66Y/Q145C) above, with Y44L counted along it
In words: Fluorescence quenching substrate binding assay with BtuFfluo, W66L mutant. Conditions: for Kd: BtuFfluo 5 nM, substrate 0.02 nM to 33 μM, 30 min at 10 °C, mean and S.E.M., n = 12. Here is the method: as §2, §3

Experiment [9] deals with T8, BtuFfluo W66F (E.c. BtuF) (Escherichia coli, UniProt P37028, Q145C/W66F).
T8 construct: His6; made in house
T8 sequence (P37028 23-266 W66F/Q145C): as the sequence (P37028 23-266 W66Y/Q145C) above, with Y44F counted along it
In words: Fluorescence quenching substrate binding assay with BtuFfluo, W66F mutant. Conditions: BtuFfluo 5 nM, substrate 0.02 nM to 33 μM, 30 min at 10 °C, mean and S.E.M., n = 12. Here is the method: as §2
The assay is based on monitoring the ligand-induced change in emission of fluorescein attached to BtuF (BtuFfluo). A similar approach has been used to determine the affinity of MBP for maltose in the presence of various sAB[40][41][42]. […] After incubation for 30 min at 10 °C the fluorescence intensity was recorded at an excitation wavelength of 485 nm and emission at 528 nm. The maximum signal was recorded in the absence of substrate and decreased with increasing substrate concentration. […]

The target of experiment [10] is T9, wild type BtuCD-F (Escherichia coli, UniProt P06609+P37028).
T9 construct: His10 (N); made in house
T9 sequence (P06609 whole entry): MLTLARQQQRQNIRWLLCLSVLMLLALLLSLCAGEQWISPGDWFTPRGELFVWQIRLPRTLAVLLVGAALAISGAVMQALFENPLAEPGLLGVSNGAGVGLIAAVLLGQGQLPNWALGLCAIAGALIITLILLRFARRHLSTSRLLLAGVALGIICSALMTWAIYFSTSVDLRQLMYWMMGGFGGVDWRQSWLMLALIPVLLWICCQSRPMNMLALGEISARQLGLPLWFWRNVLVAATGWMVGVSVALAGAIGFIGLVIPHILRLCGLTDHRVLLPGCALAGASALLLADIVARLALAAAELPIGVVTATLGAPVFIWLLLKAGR
T9 sequence (P37028 23-266): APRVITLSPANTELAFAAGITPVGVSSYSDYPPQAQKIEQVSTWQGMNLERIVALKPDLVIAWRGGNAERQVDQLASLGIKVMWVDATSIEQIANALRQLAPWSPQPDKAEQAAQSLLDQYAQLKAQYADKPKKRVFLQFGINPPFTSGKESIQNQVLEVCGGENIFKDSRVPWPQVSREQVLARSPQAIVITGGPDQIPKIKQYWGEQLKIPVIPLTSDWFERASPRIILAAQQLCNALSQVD
T9 sequence (P06611 whole entry, further chain): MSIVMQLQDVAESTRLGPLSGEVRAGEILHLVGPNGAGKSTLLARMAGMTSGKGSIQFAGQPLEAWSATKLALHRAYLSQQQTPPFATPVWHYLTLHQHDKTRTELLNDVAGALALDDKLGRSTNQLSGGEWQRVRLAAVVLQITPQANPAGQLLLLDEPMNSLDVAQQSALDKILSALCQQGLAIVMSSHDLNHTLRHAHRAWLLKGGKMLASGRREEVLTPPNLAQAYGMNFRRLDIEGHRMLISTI
In words: In vitro substrate transport assay with liposome reconstituted BtuCD and wild type BtuF. The experiment is classed as biochemical. Here is the method:
as §1
The amount of right-side-in oriented BtuCD in liposomes was determined as described previously for ABC type II importer HmuUV with minor modifications. […] The amount of BtuFfluo associated with the liposomes was determined by measuring the fluorescence signal at an excitation wavelength of 485 nm and an emission wavelength of 516 nm. Unspecific BtuFfluo interaction with liposomes was measured using empty liposomes. […]

Where two headings read alike, the source gives them in different places.

T4 sequence (P37028 23-266 W66E/Q145C): as the sequence (P37028 23-266 W66Y/Q145C) above, with Y44E counted along it
T2 sequence (P37028 23-266 W66A/Q145C): as the sequence (P37028 23-266 W66Y/Q145C) above, with Y44A counted along it

As a reminder, the Kd is the free concentration of one partner at which half of the binding sites on the other are occupied at equilibrium, for simple one-to-one binding. As to `C/C1=C2/[N-][C@H]([C@H](CC(N)=O)[C@@]2(C)CCC(=O)NC[C@@H](C)O)[C@]2(C)N=C(/C(C)=C3N=C(/C=C4N=C1[C@@H](CCC(N)=O)C\4(C)C)[C@@H](CCC(N)=O)[C@]\3(C)CC(N)=O)[C@@H](CCC(N)=O)[C@]2(C)CC(N)=O.[Co+3]` [Cbi, cobinamide], the results for the “effect of BtuF W66X substitution on in vitro transport rate” value in experiment [1] and in experiment [1] (listed as cobinamide) were “hardly affected” and “not influenced”, respectively. For the same compound, the “reduced affinity compared to wt” value was 3 fold in [2] (W66Y (tyrosine) versus wild type BtuF), “more than 10 fold” in experiment [7] (W66H (histidine) versus wild type BtuF) and 3 fold in [8] (W66L (leucine) versus wild type BtuF). The Kd is 0.15 ± 0.03 µM in experiment [2] (di-CN-Cbi, read-out: KD of Cbi); 1.8 ± 0.8 µM in experiment [3] (di-CN-Cbi, read-out: KD of Cbi); 0.8 ± 0.2 µM in [4] (di-CN-Cbi, read-out: KD of Cbi); 2.9 ± 0.8 µM in experiment [5] (di-CN-Cbi, BtuFfluo 5 nM, substrate 0.02 nM to 33 μM, 30 min at 10 °C, mean and S.E.M., n = 12, read-out: KD of Cbi); 0.04 ± 0.01 µM in experiment [6] (di-CN-Cbi, read-out: KD of Cbi); 0.5 ± 0.1 µM in [7] (di-CN-Cbi, read-out: KD of Cbi). Further, the Kd in experiment [8] (di-CN-Cbi, read-out: KD of Cbi) was determined as 0.12 ± 0.02 µM; in [9] (di-CN-Cbi, read-out: KD of Cbi), 0.03 ± 0.007 µM. Also, the “KD of Cbi” value in [3] (di-CN-Cbi) is “low micromolar range”; in experiment [5] (di-CN-Cbi, BtuFfluo 5 nM, substrate 0.02 nM to 33 μM, 30 min at 10 °C, mean and S.E.M., n = 12) it was “low micromolar range”. Further, the “decrease in affinity compared to wt” value in experiment [4] was “more than 10 fold”. This compound also yielded an initial transport rate in experiment [10] (14CN-Cbi, 4 mg/ml proteoliposomes (~0.5 μM total BtuCD), 1 μM BtuF, 15 μM cobinamide, 2 mM ATP, 22 °C, corrected for right-side-in oriented transporters, mean ± S.E.M., n = 6) of 0.7 ± 0.2 nmol Cbi/mg protein/min. In addition, the “in vitro turnover number for Cbi transport, slower than that of Cbl transport” value in experiment [10] (calculated, Cbi versus Cbl transport by wild type BtuCD-F) is recorded as “approximately 1.5 fold”.
cyanocobalamin [Cbl]: the “effect of BtuF W66X substitution on in vitro transport rate” value in [1] is given as “not influenced”. For the same compound, the Kd in experiment [2] (CN-Cbl, read-out: KD of Cbl) came to 0.0057 ± 0.0017 µM; in experiment [3] (CN-Cbl, read-out: KD of Cbl), 0.014 ± 0.004 µM; in [4] (CN-Cbl, read-out: KD of Cbl), 0.068 ± 0.013 µM; in experiment [5] (CN-Cbl, BtuFfluo 5 nM, substrate 0.02 nM to 33 μM, 30 min at 10 °C, mean and S.E.M., n = 12, read-out: KD of Cbl) it was 0.057 ± 0.015 µM; in experiment [6] (CN-Cbl, read-out: KD of Cbl) it was 0.0091 ± 0.0026 µM; in [7] (CN-Cbl, read-out: KD of Cbl), 0.0055 ± 0.0017 µM. Moreover, the Kd in experiment [8] (CN-Cbl, read-out: KD of Cbl) stood at 0.015 ± 0.002 µM; in experiment [9] (CN-Cbl, read-out: KD of Cbl), 0.008 ± 0.0019 µM. Also, the “decrease in affinity compared to wt” value in experiment [4] and in [5] (W66E (glutamate) versus wild type BtuF) was ~ 7 fold in each case. Besides, the “KD of Cbl” value in experiment [6] (CN-Cbl) is reported as “low nM range”.

Source of the values: PMC5269720, “Conformational Change of a Tryptophan Residue in BtuF Facilitates Binding and Transport of Cobinamide by the Vitamin B12 Transporter BtuCD-F” (Scientific Reports, 2017).
